The values below are quoted from earlier work in article PMC10535842, “Novel Thiazole-Based SIRT2 Inhibitors Discovered via Molecular Modelling Studies and Enzymatic Assays” (Pharmaceuticals, 2023).

Where “and” joins values, the source holds several entries; their conditions need not be identical. Equal values may be shown once.

This data set concerns SIRT2. The conditions noted are these: substrate RHKK(Ac)-AMC; read-out: SIRT2 IC50 (series B, compounds 27-111); cited from earlier work.
On to `COc1ccc2ccccc2c1Cn1cnc2sc3c(c2c1=O)CCC(NC1CCOCC1)C3` (centres unmarked) [Compound 100], for which the IC50 (as a rule, the concentration needed to halve the response being measured) is 1.11 µM.
Turning to `COc1ccc2ccccc2c1Cn1cnc2sc3c(c2c1=O)CCC(NCc1ccncc1)C3` (centres unmarked) [Compound 66], the IC50 is 1.2 µM.
Turning to `COc1cccc(CNC2CCc3c(sc4ncn(Cc5c(OC)ccc6ccccc56)c(=O)c34)C2)c1` (centres unmarked) [Compound 54], the IC50 is 1.9 µM.
Take `O=c1c2c3c(sc2ncn1Cc1cccc2cccnc12)CC(NCc1ccc(Cl)cc1)CC3` (centres unmarked) [Compound 47]: the 50% inhibitory concentration (IC50) is 1.27 µM.
Consider `COc1ccc2ccccc2c1Cn1cnc2sc3c(c2c1=O)CCC(NCc1c(C)nn(C)c1C)C3` (centres unmarked) [Compound 31], for which the half-maximal inhibitory concentration (IC50) was 5.11 µM.
As to `COc1ccc2ccccc2c1Cn1cnc2sc3c(c2c1=O)CCC(NCC1CCCO1)C3` (centres unmarked) [Compound 90], the half-maximal inhibitory concentration (IC50) was 1.9 µM.
For the compound `O=c1c2c3c(sc2ncn1Cc1cccc2cccnc12)CC(NC1CCCc2ccccc21)CC3` (centres unmarked) [Compound 107], the IC50 was 5.49 µM.
Take `COc1ccc(Cn2cnc3sc4c(c3c2=O)CCC(NC2CCOCC2)C4)c2ccccc12` (centres unmarked) [Compound 101]: the 50% inhibitory concentration (IC50) was 5.06 µM.
As to `Cc1ccc(NC2CCc3c(sc4ncn(Cc5cccc6cccnc56)c(=O)c34)C2)cc1` (centres unmarked) [Compound 61], the concentration for half-maximal inhibition (IC50) is 4.25 µM.
As for `O=c1c2c3c(sc2ncn1Cc1cccc(-c2ccccc2)c1)CC(NC1CCCC1)CC3` (centres unmarked) [Compound 99], the IC50 is 1.52 µM.
For the compound `COc1ccc2ccccc2c1Cn1cnc2sc3c(c2c1=O)CCC(NCc1cccs1)C3` (centres unmarked) [Compound 38], the IC50 is 6.03 µM.
For `O=c1c2c3c(sc2ncn1Cc1ccc2ccccc2c1)CC(NCCc1ccncc1)CC3` (centres unmarked) [Compound 83], the half-maximal inhibitory concentration (IC50) was 9.6 µM.
As to `O=c1c2c3c(sc2ncn1Cc1cccc(-c2ccccc2)c1)CC(NCCC1CCCCC1)CC3` (centres unmarked) [Compound 96], the concentration for half-maximal inhibition (IC50) was 3.74 µM.
Take `COc1ccccc1Cn1cnc2sc3c(c2c1=O)CCC(NCC1CCCCC1)C3` (centres unmarked) [Compound 89]: the IC50 is 9.18 µM.
Consider `Cc1nn(C)c(C)c1CNC1CCc2c(sc3ncn(Cc4cccc5ccccc45)c(=O)c23)C1` (centres unmarked) [Compound 32], for which the concentration for half-maximal inhibition (IC50) is 4.2 µM.
For `COc1ccc2ccccc2c1Cn1cnc2sc3c(c2c1=O)CCC(NC1CCCC1)C3` (centres unmarked) [Compound 97], the IC50 is 1.18 µM.
For `O=c1c2c3c(sc2ncn1Cc1ccc2ccccc2c1)CC(NCc1ccccc1)CC3` (centres unmarked) [Compound 41], the IC50 is 5.45 µM.
Turning to `O=c1c2c3c(sc2ncn1Cc1cccc2ccccc12)CC(NCc1cncnc1)CC3` (centres unmarked) [Compound 84], the IC50 was 6.45 µM.
For the compound `O=c1c2c3c(sc2ncn1Cc1ccc2ccccc2c1)CC(NCC1CCCCC1)CC3` (centres unmarked) [Compound 87], the 50% inhibitory concentration (IC50) is 5.53 µM.
On to `O=c1c2c3c(sc2ncn1Cc1cccc2cccnc12)CC(NCc1ccncc1)CC3` (centres unmarked) [Compound 69], for which the IC50 was 3.68 µM.
On to `O=c1c2c3c(sc2ncn1Cc1cccc2cccnc12)CC(NCC1CCCCC1)CC3` (centres unmarked) [Compound 88], for which the IC50 was 2.43 µM.
`O=c1c2c3c(sc2ncn1Cc1cccc2ccccc12)CC(NCc1cccnc1)CC3` (centres unmarked) [Compound 64]: the IC50 was 2.99 µM.
As to `O=c1c2c3c(sc2ncn1Cc1ccc2ccccc2c1)CC(NCCc1cccnc1)CC3` (centres unmarked) [Compound 80], the IC50 is 8.68 µM.
On to `COc1ccc2ccccc2c1Cn1cnc2sc(CCNC3CCOCC3)c(C)c2c1=O` [Compound 111], for which the 50% inhibitory concentration (IC50) was 8.15 µM.
As to `O=c1c2c3c(sc2ncn1Cc1cccc2ccccc12)CC(NCc1ccco1)CC3` (centres unmarked) [Compound 28], the 50% inhibitory concentration (IC50) was 7.61 µM.
On to `O=c1c2c3c(sc2ncn1Cc1cccc2cccnc12)CC(NCc1cccs1)CC3` (centres unmarked) [Compound 39], for which the IC50 was 2.56 µM.
For `O=c1c2c3c(sc2ncn1Cc1cccc2cccnc12)CC(NCc1ccccc1)CC3` (centres unmarked) [Compound 42], the 50% inhibitory concentration (IC50) is 2.5 µM.
Take `O=c1c2c3c(sc2ncn1Cc1cccc(-c2ccccc2)c1)CC(NC1CCOCC1)CC3` (centres unmarked) [Compound 102]: the IC50 is 1.74 µM.
With `O=c1c2c3c(sc2ncn1Cc1ccc2ccccc2c1)CC(NCc1ccco1)CC3` (centres unmarked) [Compound 29], the IC50 was 11.7 µM.
Consider `O=c1c2c3c(sc2ncn1Cc1cccc2ccccc12)CC(NCc1ccncc1)CC3` (centres unmarked) [Compound 67], for which the half-inhibitory concentration (IC50) is 3.58 µM.
For the compound `COc1ccccc1CNC1CCc2c(sc3ncn(Cc4ccc5ccccc5c4)c(=O)c23)C1` (centres unmarked) [Compound 51], the 50% inhibitory concentration (IC50) is 4.22 µM.
`COc1ccccc1CNC1CCc2c(sc3ncn(Cc4cccc5cccnc45)c(=O)c23)C1` (centres unmarked) [Compound 52]: the concentration for half-maximal inhibition (IC50) is 5.61 µM.
Regarding `O=c1c2c3c(sc2ncn1Cc1cccc(-c2ccccc2)c1)CC(NCC1CCOC1)CC3` (centres unmarked) [Compound 94], the 50% inhibitory concentration (IC50) is 2.58 µM.
As to `O=c1c2c3c(sc2ncn1Cc1cccc2cccnc12)CC(Nc1ccc(F)cc1)CC3` (centres unmarked) [Compound 62], the concentration for half-maximal inhibition (IC50) was < 1 µM and 0.97 µM.
Regarding `COc1ccc(NC2CCc3c(sc4ncn(Cc5cccc6cccnc56)c(=O)c34)C2)cc1` (centres unmarked) [Compound 60], the IC50 is 2.48 µM.
As for `O=c1c2c3c(sc2ncn1Cc1cccc2cccnc12)CC(NCc1ccco1)CC3` (centres unmarked) [Compound 30], the concentration for half-maximal inhibition (IC50) was 4.16 µM.
For `COc1ccc2ccccc2c1Cn1cnc2sc3c(c2c1=O)CCC(NCc1cccnc1)C3` (centres unmarked) [Compound 63], the 50% inhibitory concentration (IC50) was 1.45 µM.
Take `O=c1c2c3c(sc2ncn1Cc1cccc(-c2ccccc2)c1)CC(NCCN1CCCC1)CC3` (centres unmarked) [Compound 104]: the half-inhibitory concentration (IC50) was 3.78 µM.
On to `COc1ccc2ccccc2c1Cn1cnc2sc3c(c2c1=O)CCC(NCc1ccccn1)C3` (centres unmarked) [Compound 70], for which the IC50 was 3.12 µM.
Turning to `COc1ccc2ccccc2c1Cn1cnc2sc3c(c2c1=O)CCC(NCCc1ccncc1)C3` (centres unmarked) [Compound 81], the IC50 was 2.75 µM.
As for `O=c1c2c3c(sc2ncn1Cc1cccc2cccnc12)CC(NCc1cccc(Cl)c1)CC3` (centres unmarked) [Compound 46], the IC50 was 2.84 µM.
As to `COc1ccc(CNC2CCc3c(sc4ncn(Cc5cccc6cccnc56)c(=O)c34)C2)cn1` (centres unmarked) [Compound 77], the half-maximal inhibitory concentration (IC50) was 2.65 µM.
With `COc1ccc2ccccc2c1Cn1cnc2sc3c(c2c1=O)CCC(NCc1cccc(F)c1)C3` (centres unmarked) [Compound 44], the half-maximal inhibitory concentration (IC50) is 4.07 µM.
In the case of `O=c1c2c3c(sc2ncn1Cc1ccc2ccccc2c1)CC(NCc1ccccn1)CC3` (centres unmarked) [Compound 72], the IC50 was 8.67 µM.
For the compound `COc1ccccc1Cn1cnc2sc3c(c2c1=O)CCC(NC1CCc2ccccc21)C3` (centres unmarked) [Compound 106], the 50% inhibitory concentration (IC50) was 16.3 µM.
`COc1ccc2ccccc2c1Cn1cnc2sc3c(c2c1=O)CCC(NCc1ccco1)C3` (centres unmarked) [Compound 27]: the 50% inhibitory concentration (IC50) was 5.24 µM.
As to `COc1ccc(CNC2CCc3c(sc4ncn(Cc5c(OC)ccc6ccccc56)c(=O)c34)C2)cn1` (centres unmarked) [Compound 74], the IC50 is 1.9 µM.
On to `COc1ccccc1CNC1CCc2c(sc3ncn(Cc4c(OC)ccc5ccccc45)c(=O)c23)C1` (centres unmarked) [Compound 50], for which the IC50 was 2.24 µM.
`COc1ccc(CNC2CCc3c(sc4ncn(Cc5cccc6ccccc56)c(=O)c34)C2)cc1` (centres unmarked) [Compound 57]: the IC50 is 3.2 µM.
As to `COc1ccc2ccccc2c1Cn1cnc2sc(CCNCc3ccncc3)c(C)c2c1=O` [Compound 110], the IC50 was 2.93 µM.
`O=c1c2c3c(sc2ncn1Cc1cccc2cccnc12)CC(NCc1cccnc1)CC3` (centres unmarked) [Compound 65]: the concentration for half-maximal inhibition (IC50) is 2.92 µM.
For `O=c1c2c3c(sc2ncn1Cc1cccc2ccccc12)CC(NCCc1cccnc1)CC3` (centres unmarked) [Compound 79], the concentration for half-maximal inhibition (IC50) was 9.57 µM.
In the case of `COc1ccc2ccccc2c1Cn1cnc2sc3c(c2c1=O)CCC(NCc1c(C)noc1C)C3` (centres unmarked) [Compound 34], the IC50 is 4 µM.
As to `COc1ccccc1CNC1CCc2c(sc3ncn(Cc4ccccc4OC)c(=O)c23)C1` (centres unmarked) [Compound 53], the half-maximal inhibitory concentration (IC50) is 9.59 µM.
For `COc1ccc2ccccc2c1Cn1cnc2sc3c(c2c1=O)CCC(NCc1ccccc1)C3` (centres unmarked) [Compound 40], the IC50 is 21.1 µM.
In the case of `O=c1c2c3c(sc2ncn1Cc1ccc2ccccc2c1)CC(NCC1CCCO1)CC3` (centres unmarked) [Compound 92], the IC50 was 13.1 µM.
As for `COc1ccc2ccccc2c1Cn1cnc2sc3c(c2c1=O)CCC(NCC1CCOC1)C3` (centres unmarked) [Compound 93], the concentration for half-maximal inhibition (IC50) is 6.03 µM.
`O=c1c2c3c(sc2ncn1Cc1cccc2cccnc12)CC(NC1CCc2ccccc21)CC3` (centres unmarked) [Compound 105]: the IC50 is 3.09 µM.
As for `COc1ccc2ccccc2c1Cn1cnc2sc(CCNCc3cccnc3)c(C)c2c1=O` [Compound 109], the IC50 is 2.15 µM.
On to `Cc1nn(C)c(C)c1CNC1CCc2c(sc3ncn(Cc4ccc5ccccc5c4)c(=O)c23)C1` (centres unmarked) [Compound 33], for which the 50% inhibitory concentration (IC50) was 7.43 µM.
`O=c1c2c3c(sc2ncn1Cc1cccc2ccccc12)CC(NCc1ccccn1)CC3` (centres unmarked) [Compound 71]: the half-inhibitory concentration (IC50) was 7.68 µM.
With `O=c1c2c3c(sc2ncn1Cc1ccc2ccccc2c1)CC(NCc1cncnc1)CC3` (centres unmarked) [Compound 85], the IC50 was 5.3 µM.
Turning to `COc1ccc2ccccc2c1Cn1cnc2sc3c(c2c1=O)CCC(NCC1CCCCC1)C3` (centres unmarked) [Compound 86], the IC50 was 1.65 µM.
On to `O=c1c2c3c(sc2ncn1Cc1cccc2cccnc12)CC(NCCC1CCCCC1)CC3` (centres unmarked) [Compound 95], for which the 50% inhibitory concentration (IC50) was 5.85 µM.
Regarding `COc1ccc(CNC2CCc3c(sc4ncn(Cc5ccc6ccccc6c5)c(=O)c34)C2)cc1` (centres unmarked) [Compound 58], the IC50 was 3.82 µM.
With `O=c1c2c3c(sc2ncn1Cc1cccc2cccnc12)CC(NCc1ccccc1Cl)CC3` (centres unmarked) [Compound 48], the 50% inhibitory concentration (IC50) was 3.8 µM.
For the compound `O=c1c2c3c(sc2ncn1Cc1cccc2cccnc12)CC(NCc1ccccn1)CC3` (centres unmarked) [Compound 73], the half-maximal inhibitory concentration (IC50) is 2.61 µM.
`COc1ccccc1Cn1cnc2sc3c(c2c1=O)CCC(NCc1ccccc1)C3` (centres unmarked) [Compound 43]: the concentration for half-maximal inhibition (IC50) is 10.4 µM.
As to `COc1ccc(CNCCc2sc3ncn(Cc4c(OC)ccc5ccccc45)c(=O)c3c2C)cc1` [Compound 108], the IC50 is 3.36 µM.
In the case of `COc1ccc(CNC2CCc3c(sc4ncn(Cc5ccc6ccccc6c5)c(=O)c34)C2)cn1` (centres unmarked) [Compound 76], the IC50 is 10.2 µM.
Turning to `Cc1noc(C)c1CNC1CCc2c(sc3ncn(Cc4cccc5cccnc45)c(=O)c23)C1` (centres unmarked) [Compound 37], the IC50 was 6.94 µM.
As to `COc1ccc2ccccc2c1Cn1cnc2sc3c(c2c1=O)CCC(NCCc1cccnc1)C3` (centres unmarked) [Compound 78], the concentration for half-maximal inhibition (IC50) is 10.3 µM.
Consider `COc1ccc(Cn2cnc3sc4c(c3c2=O)CCC(NCc2c(C)noc2C)C4)c2ccccc12` (centres unmarked) [Compound 36], for which the half-inhibitory concentration (IC50) was less than 1 µM.
Regarding `O=c1c2c3c(sc2ncn1Cc1cccc2cccnc12)CC(NCc1cccc(F)c1)CC3` (centres unmarked) [Compound 45], the half-inhibitory concentration (IC50) is 1.72 µM.
